The supplement of paper PMC10307832

Legend:
Experiment in all cases: relative viability (nuclei count vs DMSO), 5 days (fraction); higher = more cells survive
[1] = compound: O=S(=O)(c1ccccc1)N(CC(F)(F)F)c1ccc(C(O)(C(F)(F)F)C(F)(F)F)cc1 + C[C@@H](Oc1cc(-c2cnn(C3CCNCC3)c2)cnc1N)c1c(Cl)ccc(F)c1Cl [Crizotinib] (partner 1 µM)
Outline: (§1)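 Lung cancer cell lines, seeded in 1536-well plates, were treated the following day by pin tool with a single drug or with five library-drug doses (not always all listed) in √10 steps on top of a fixed anchor-drug dose. Cells were fixed and nuclei stained in one step after 5 days, and nuclei were counted. Relative viability is the nuclei count for treated wells divided by that for vehicle wells, reported as medians of duplicate plates.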

RO-3306 + OSI-027 = compound: C1=CC2=C(C=CC(=C2)C=C3C(=O)NC(=NCC4=CC=CS4)S3)N=C1 [RO-3306] + COc1cccc2cc(-c3nc([C@H]4CC[C@H](C(=O)O)CC4)n4ncnc(N)c34)[nH]c12 [OSI-027] (partner 0.5 µM)
Outline: as §1

RO-3306 + Bortezomib = compound: C1=CC2=C(C=CC(=C2)C=C3C(=O)NC(=NCC4=CC=CS4)S3)N=C1 [RO-3306] + CC(C)C[C@H](NC(=O)[C@H](Cc1ccccc1)NC(=O)c1cnccn1)B(O)O [Bortezomib] (partner 0.002 µM)
Outline: as §1

[2] = compound: O=S(=O)(c1ccccc1)N(CC(F)(F)F)c1ccc(C(O)(C(F)(F)F)C(F)(F)F)cc1 + CCNC(=O)c1noc(-c2cc(C(C)C)c(O)cc2O)c1-c1ccc(CN2CCOCC2)cc1 [Luminespib] (partner 0.01 µM)
Outline: as §1

[3] = compound: O=S(=O)(c1ccccc1)N(CC(F)(F)F)c1ccc(C(O)(C(F)(F)F)C(F)(F)F)cc1 + C[C@]1(O)C[C@@H](c2nc(-c3ccc4ccc(-c5ccccc5)nc4c3)c3c(N)nccn32)C1 [Linsitinib] (partner 1 µM)
Outline: as §1

SW 1573
relative viability ([1]; first compound 0.8 µM): 0.709
relative viability ([1]; first compound 2.53 µM): 0.75
relative viability ([1]; first compound 8 µM): 0.636
relative viability (RO-3306 + OSI-027; first compound 0.01 µM): 0.683
relative viability (RO-3306 + OSI-027; first compound 0.1 µM): 0.603
relative viability (RO-3306 + OSI-027; first compound 0.3162 µM): 0.607
relative viability (RO-3306 + OSI-027; first compound 1 µM): 0.578
relative viability (RO-3306 + Bortezomib; first compound 0.01 µM): 1.22
relative viability (RO-3306 + Bortezomib; first compound 0.1 µM): 0.924
relative viability (RO-3306 + Bortezomib; first compound 0.3162 µM): 0.972
relative viability (RO-3306 + Bortezomib; first compound 1 µM): 0.894
relative viability ([2]; first compound 0.8 µM): 0.266
relative viability ([2]; first compound 2.53 µM): 0.218
relative viability ([2]; first compound 8 µM): 0.207
relative viability ([3]; first compound 0.8 µM): 0.829
relative viability ([3]; first compound 2.53 µM): 0.762
relative viability ([3]; first compound 8 µM): 0.624

H3255
relative viability ([1]; first compound 0.8 µM): 0.755
relative viability ([1]; first compound 2.53 µM): 0.776
relative viability ([1]; first compound 8 µM): 0.829
relative viability (RO-3306 + OSI-027; first compound 0.01 µM): 0.671
relative viability (RO-3306 + OSI-027; first compound 0.03162 µM): 0.476
relative viability (RO-3306 + OSI-027; first compound 0.1 µM): 0.604
relative viability (RO-3306 + OSI-027; first compound 0.3162 µM): 0.594
relative viability (RO-3306 + OSI-027; first compound 1 µM): 0.504
relative viability (RO-3306 + Bortezomib; first compound 0.01 µM): 0.747
relative viability (RO-3306 + Bortezomib; first compound 0.03162 µM): 0.707
relative viability (RO-3306 + Bortezomib; first compound 0.1 µM): 0.738
relative viability (RO-3306 + Bortezomib; first compound 0.3162 µM): 0.792
relative viability (RO-3306 + Bortezomib; first compound 1 µM): 0.677
relative viability ([2]; first compound 0.8 µM): 0.734
relative viability ([2]; first compound 2.53 µM): 0.753
relative viability ([2]; first compound 8 µM): 0.767
relative viability ([3]; first compound 0.8 µM): 0.962
relative viability ([3]; first compound 2.53 µM): 0.867
relative viability ([3]; first compound 8 µM): 0.832

NCI-H2023
relative viability ([1]; first compound 0.8 µM): 0.754
relative viability ([1]; first compound 2.53 µM): 0.524
relative viability ([1]; first compound 8 µM): 0.61
relative viability (RO-3306 + OSI-027; first compound 0.01 µM): 0.429
relative viability (RO-3306 + OSI-027; first compound 0.03162 µM): 0.373
relative viability (RO-3306 + OSI-027; first compound 0.1 µM): 0.36
relative viability (RO-3306 + OSI-027; first compound 0.3162 µM): 0.419
relative viability (RO-3306 + OSI-027; first compound 1 µM): 0.283
relative viability (RO-3306 + Bortezomib; first compound 0.01 µM): 1.01
relative viability (RO-3306 + Bortezomib; first compound 0.03162 µM): 0.795
relative viability (RO-3306 + Bortezomib; first compound 0.1 µM): 0.979
relative viability (RO-3306 + Bortezomib; first compound 0.3162 µM): 1.13
relative viability (RO-3306 + Bortezomib; first compound 1 µM): 1.07
relative viability ([2]; first compound 0.8 µM): 0.921
relative viability ([2]; first compound 2.53 µM): 0.638
relative viability ([2]; first compound 8 µM): 0.535
relative viability ([3]; first compound 0.8 µM): 0.659
relative viability ([3]; first compound 2.53 µM): 0.564
relative viability ([3]; first compound 8 µM): 0.464

HOP-62
relative viability ([1]; first compound 0.8 µM): 1.04
relative viability ([1]; first compound 2.53 µM): 0.871
relative viability ([1]; first compound 8 µM): 0.913
relative viability (RO-3306 + OSI-027; first compound 0.01 µM): 0.827
relative viability (RO-3306 + OSI-027; first compound 0.03162 µM): 0.593
relative viability (RO-3306 + OSI-027; first compound 0.1 µM): 0.727
relative viability (RO-3306 + OSI-027; first compound 0.3162 µM): 0.89
relative viability (RO-3306 + OSI-027; first compound 1 µM): 0.8
relative viability (RO-3306 + Bortezomib; first compound 0.01 µM): 0.505
relative viability (RO-3306 + Bortezomib; first compound 0.03162 µM): 0.961
relative viability (RO-3306 + Bortezomib; first compound 0.1 µM): 0.674
relative viability (RO-3306 + Bortezomib; first compound 0.3162 µM): 0.882
relative viability (RO-3306 + Bortezomib; first compound 1 µM): 1.03
relative viability ([2]; first compound 0.8 µM): 0.903
relative viability ([2]; first compound 2.53 µM): 0.907
relative viability ([2]; first compound 8 µM): 0.862
relative viability ([3]; first compound 0.8 µM): 1.14
relative viability ([3]; first compound 2.53 µM): 0.607
relative viability ([3]; first compound 8 µM): 0.836

LC-2-ad
relative viability ([1]; first compound 0.8 µM): 0.478
relative viability ([1]; first compound 2.53 µM): 0.498
relative viability ([1]; first compound 8 µM): 0.443
relative viability (RO-3306 + OSI-027; first compound 0.01 µM): 0.863
relative viability (RO-3306 + OSI-027; first compound 0.03162 µM): 0.735
relative viability (RO-3306 + OSI-027; first compound 0.1 µM): 0.781
relative viability (RO-3306 + OSI-027; first compound 0.3162 µM): 0.932
relative viability (RO-3306 + OSI-027; first compound 1 µM): 0.849
relative viability (RO-3306 + Bortezomib; first compound 0.01 µM): 1.1
relative viability (RO-3306 + Bortezomib; first compound 0.03162 µM): 0.976
relative viability (RO-3306 + Bortezomib; first compound 0.1 µM): 0.965
relative viability (RO-3306 + Bortezomib; first compound 0.3162 µM): 1.09
relative viability (RO-3306 + Bortezomib; first compound 1 µM): 0.712
relative viability ([2]; first compound 0.8 µM): 0.898
relative viability ([2]; first compound 2.53 µM): 0.892
relative viability ([2]; first compound 8 µM): 0.864
relative viability ([3]; first compound 0.8 µM): 0.701
relative viability ([3]; first compound 2.53 µM): 0.831
relative viability ([3]; first compound 8 µM): 0.816

NCI-H2347
relative viability ([1]; first compound 0.8 µM): 0.873
relative viability ([1]; first compound 2.53 µM): 0.658
relative viability ([1]; first compound 8 µM): 0.751
relative viability (RO-3306 + OSI-027; first compound 0.01 µM): 0.449
relative viability (RO-3306 + OSI-027; first compound 0.03162 µM): 0.404
relative viability (RO-3306 + OSI-027; first compound 0.1 µM): 0.421
relative viability (RO-3306 + OSI-027; first compound 0.3162 µM): 0.249
relative viability (RO-3306 + OSI-027; first compound 1 µM): 0.356
relative viability (RO-3306 + Bortezomib; first compound 0.01 µM): 1.07
relative viability (RO-3306 + Bortezomib; first compound 0.03162 µM): 0.633
relative viability (RO-3306 + Bortezomib; first compound 0.1 µM): 0.98
relative viability (RO-3306 + Bortezomib; first compound 0.3162 µM): 0.823
relative viability (RO-3306 + Bortezomib; first compound 1 µM): 0.711
relative viability ([2]; first compound 0.8 µM): 0.512
relative viability ([2]; first compound 2.53 µM): 0.41
relative viability ([2]; first compound 8 µM): 0.286
relative viability ([3]; first compound 0.8 µM): 1.1
relative viability ([3]; first compound 2.53 µM): 1.01
relative viability ([3]; first compound 8 µM): 0.825

NCI-H1651
relative viability ([1]; first compound 0.8 µM): 1.02
relative viability ([1]; first compound 2.53 µM): 0.882
relative viability ([1]; first compound 8 µM): 0.849
relative viability (RO-3306 + OSI-027; first compound 0.01 µM): 0.796
relative viability (RO-3306 + OSI-027; first compound 0.03162 µM): 0.564
relative viability (RO-3306 + OSI-027; first compound 0.1 µM): 0.633
relative viability (RO-3306 + OSI-027; first compound 0.3162 µM): 0.794
relative viability (RO-3306 + OSI-027; first compound 1 µM): 0.609
relative viability (RO-3306 + Bortezomib; first compound 0.01 µM): 0.887
relative viability (RO-3306 + Bortezomib; first compound 0.03162 µM): 0.877
relative viability (RO-3306 + Bortezomib; first compound 0.1 µM): 0.923
relative viability (RO-3306 + Bortezomib; first compound 0.3162 µM): 0.853
relative viability (RO-3306 + Bortezomib; first compound 1 µM): 0.858
relative viability ([2]; first compound 0.8 µM): 0.995
relative viability ([2]; first compound 2.53 µM): 0.871
relative viability ([2]; first compound 8 µM): 0.732
relative viability ([3]; first compound 0.8 µM): 1.04
relative viability ([3]; first compound 2.53 µM): 0.901
relative viability ([3]; first compound 8 µM): 1.02

COR-L23
relative viability ([1]; first compound 0.8 µM): 0.644
relative viability ([1]; first compound 2.53 µM): 0.472
relative viability ([1]; first compound 8 µM): 0.597
relative viability (RO-3306 + OSI-027; first compound 0.01 µM): 0.741
relative viability (RO-3306 + OSI-027; first compound 0.03162 µM): 0.688
relative viability (RO-3306 + OSI-027; first compound 0.1 µM): 0.783
relative viability (RO-3306 + OSI-027; first compound 0.3162 µM): 0.632
relative viability (RO-3306 + OSI-027; first compound 1 µM): 0.514
relative viability (RO-3306 + Bortezomib; first compound 0.01 µM): 1.03
relative viability (RO-3306 + Bortezomib; first compound 0.1 µM): 1.1
relative viability (RO-3306 + Bortezomib; first compound 0.3162 µM): 1.02
relative viability (RO-3306 + Bortezomib; first compound 1 µM): 0.772
relative viability ([2]; first compound 0.8 µM): 0.953
relative viability ([2]; first compound 2.53 µM): 0.728
relative viability ([2]; first compound 8 µM): 0.628
relative viability ([3]; first compound 0.8 µM): 1.12
relative viability ([3]; first compound 2.53 µM): 0.971
relative viability ([3]; first compound 8 µM): 0.748
